Experimental findings from US20240417428A1, “POLYPEPTIDE FOR INHIBITING TRPM8 AND USE THEREOF” (ZHEJIANG UNIVERSITY, priority 2021, published 2024) are described below.

Molecules are shown by their SMILES. pIC50: −log10 of the molar value. Where a SMILES comes first, the peptide text is derived from it.

One experiment addresses T1, TRPM2 (Homo sapiens, UniProt O94759).
T1 construct: expressed in transfected cells; host or cells: HEK293T
Briefly: Electrophysiological recording, ligand activation of TRPM2. It is filed as cell-based. As to the method: HEK293T cells were cultured in Dulbecco's modified Eagle culture medium under a 37° C., 5% CO2 environment, 10% fetal bovine serum, penicillin (100 U/mL), and streptomycin ([…]) was needed to add into the culture medium. Transient transfection was conducted by using Lipo 2000 (Invitrogen) transfection kit and following the instruction manual.
Electrophysiological experiment recordings were performed on the cells within 24˜48 h of transient transfections. Specifically, single channel electrophysiological recordings were performed within 8 h after transfection.
Measurement of the cell currents was respectively performed in the whole-cell recording mode, inside-out recording mode or outside-out recording mode with a HEKA EPC10 amplifier. In the whole cell electrophysiological recordings, glass microelectrodes made of borosilicate material were fire-polished to a original electrode resistance of about 3-6 MΩ. Serial resistance was compensated by 60%. The whole cell electrophysiological recordings were performed at ±80 mV. For single channel electrophysiological recordings, glass microelectrodes were fire-polished to a higher resistance of 6-8 MΩ2. Current signal was sampled at 10 kHz and filtered at 2.9 kHz. Membrane potential of the cell membrane would be clamped at +80 mV. All electrophysiological recordings were performed at room temperature (22° C.) (the maximum variation is 1° C.). […]

Another experiment concerns the target TRPM8 (Mus musculus, UniProt Q8R4D5). Briefly: Calcium imaging of primary cultured DRG neurons from oxaliplatin-treated mice. The conditions noted are these: 10 μM DeC-1.2, DRG neurons of oxaliplatin treated mice. The arrangement: endogenous in cells; host or cells: primary cultured dorsal root ganglion neurons from saline- or oxaliplatin-treated mice. It is filed as cell-based. As for the experimental part:
Mice was deeply anaesthetized, decapitated and blood was removed, DRG tissue was dissected off quickly and placed in ice-cold PBS solution. After washing the blood, digestive enzyme (Collagenase A 20 mg/100 ml, Dispase II 300 mg/100 ml dissolved in PBS) was added and DRG was digested at 37° C. for 1 hour. The samples were centrifuged at 500 g for 5 min and the digested tissue was collected. When the enzyme solution was removed, an appropriate amount of DMEM medium (containing 10% FBS, 1× Pen/Strep) was added, and the single cell suspension was prepared by mechanical trituration. The samples were centrifuged at 500 g for 10 min. […]
The primary-cultured DRG neurons were washed with a extracellular solution (ECS, 140 mM NaCl, 5 mM KCl, 1 mM MgCl2, 1.8 mM CaCl2), 10 mM Glucose, 15 mM HEPES, pH=7.4) then incubated in calcium dye incubation solution (2 μM […], 0.05% Pluronic F-127 in ECS) for 30 min. The cell images were continuously and alternately excited by a high-speed continuous monochromatic light source under the excitation wavelength of 340 nm and 380 nm, and recorded in full vision under 20× object lens by Visiview software Intracellular fluorescence intensity changes were continuously recorded at 0.5 fps via a high-speed scanning camera Flash4.0LT. The ratio of fluorescence signal at 340 nm/380 nm represents the intensity of calcium signal. […]

TRPM8, sequence (Q8R4D5 whole entry): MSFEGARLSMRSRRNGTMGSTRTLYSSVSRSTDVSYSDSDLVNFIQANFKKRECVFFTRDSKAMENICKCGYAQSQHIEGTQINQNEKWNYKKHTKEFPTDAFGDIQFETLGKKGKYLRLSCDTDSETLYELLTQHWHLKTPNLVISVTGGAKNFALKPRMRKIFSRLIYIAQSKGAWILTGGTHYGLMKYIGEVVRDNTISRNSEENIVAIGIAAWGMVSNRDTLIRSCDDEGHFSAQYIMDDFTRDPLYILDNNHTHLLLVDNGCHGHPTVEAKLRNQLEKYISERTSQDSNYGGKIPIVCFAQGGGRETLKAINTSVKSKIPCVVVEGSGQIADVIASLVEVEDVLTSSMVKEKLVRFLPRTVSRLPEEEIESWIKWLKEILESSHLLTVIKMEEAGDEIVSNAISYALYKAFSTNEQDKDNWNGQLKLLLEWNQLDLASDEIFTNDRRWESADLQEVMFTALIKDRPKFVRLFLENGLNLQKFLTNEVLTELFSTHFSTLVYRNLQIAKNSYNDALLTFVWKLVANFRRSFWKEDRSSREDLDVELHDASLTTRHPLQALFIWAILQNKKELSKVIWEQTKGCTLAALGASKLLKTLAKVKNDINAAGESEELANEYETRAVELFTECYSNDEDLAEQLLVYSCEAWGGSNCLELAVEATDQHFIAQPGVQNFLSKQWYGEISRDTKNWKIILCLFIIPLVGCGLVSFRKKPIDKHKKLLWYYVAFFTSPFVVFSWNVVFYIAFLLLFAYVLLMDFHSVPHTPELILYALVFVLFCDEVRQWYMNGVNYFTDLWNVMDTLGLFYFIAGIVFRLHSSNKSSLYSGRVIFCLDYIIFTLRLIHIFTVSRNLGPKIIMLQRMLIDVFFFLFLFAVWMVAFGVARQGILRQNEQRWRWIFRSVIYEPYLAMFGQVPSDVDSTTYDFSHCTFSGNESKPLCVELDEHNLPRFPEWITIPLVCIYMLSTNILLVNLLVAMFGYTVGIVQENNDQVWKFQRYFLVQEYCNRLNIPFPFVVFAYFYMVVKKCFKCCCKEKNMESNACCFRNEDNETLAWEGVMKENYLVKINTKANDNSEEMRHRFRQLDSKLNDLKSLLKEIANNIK
T1 sequence (O94759 whole entry): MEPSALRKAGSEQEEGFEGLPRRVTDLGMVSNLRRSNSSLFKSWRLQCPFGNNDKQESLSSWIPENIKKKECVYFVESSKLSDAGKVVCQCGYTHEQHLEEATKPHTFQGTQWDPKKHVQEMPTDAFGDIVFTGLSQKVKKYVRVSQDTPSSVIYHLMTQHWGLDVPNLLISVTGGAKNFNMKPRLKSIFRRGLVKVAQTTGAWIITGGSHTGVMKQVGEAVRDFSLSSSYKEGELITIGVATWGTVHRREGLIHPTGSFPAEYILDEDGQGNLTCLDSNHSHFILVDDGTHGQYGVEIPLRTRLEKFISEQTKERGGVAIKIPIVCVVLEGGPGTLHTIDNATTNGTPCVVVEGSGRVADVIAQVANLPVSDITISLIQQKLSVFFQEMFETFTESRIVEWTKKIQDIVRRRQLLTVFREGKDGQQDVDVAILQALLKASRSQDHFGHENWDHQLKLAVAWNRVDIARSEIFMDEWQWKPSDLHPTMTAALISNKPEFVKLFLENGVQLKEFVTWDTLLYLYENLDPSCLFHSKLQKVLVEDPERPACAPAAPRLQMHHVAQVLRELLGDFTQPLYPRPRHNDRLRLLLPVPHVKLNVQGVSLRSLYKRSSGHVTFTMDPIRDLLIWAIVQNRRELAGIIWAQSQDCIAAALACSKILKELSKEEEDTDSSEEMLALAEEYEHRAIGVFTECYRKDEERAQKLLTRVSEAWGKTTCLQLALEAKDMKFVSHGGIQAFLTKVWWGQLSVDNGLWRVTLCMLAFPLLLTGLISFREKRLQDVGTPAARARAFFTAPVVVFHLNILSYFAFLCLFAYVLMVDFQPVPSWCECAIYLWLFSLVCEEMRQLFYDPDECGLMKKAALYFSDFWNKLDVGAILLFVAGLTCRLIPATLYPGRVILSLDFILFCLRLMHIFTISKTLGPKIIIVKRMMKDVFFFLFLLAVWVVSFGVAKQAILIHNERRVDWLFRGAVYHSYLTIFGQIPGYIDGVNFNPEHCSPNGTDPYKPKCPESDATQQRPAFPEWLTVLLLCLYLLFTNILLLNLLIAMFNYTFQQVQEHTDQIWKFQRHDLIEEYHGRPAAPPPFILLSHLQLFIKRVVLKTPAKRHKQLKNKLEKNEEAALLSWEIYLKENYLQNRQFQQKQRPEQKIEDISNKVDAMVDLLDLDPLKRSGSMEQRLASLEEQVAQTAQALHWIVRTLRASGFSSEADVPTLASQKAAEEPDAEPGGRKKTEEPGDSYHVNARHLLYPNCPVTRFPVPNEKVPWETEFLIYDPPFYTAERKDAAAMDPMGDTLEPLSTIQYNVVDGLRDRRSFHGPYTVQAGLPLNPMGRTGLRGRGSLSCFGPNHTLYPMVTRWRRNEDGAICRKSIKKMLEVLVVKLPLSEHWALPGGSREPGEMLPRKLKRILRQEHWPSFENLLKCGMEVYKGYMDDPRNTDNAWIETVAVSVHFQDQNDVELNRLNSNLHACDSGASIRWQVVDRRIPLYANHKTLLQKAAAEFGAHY

In general, pIC50 refers to −log10 of the IC50, conventionally taken in molar units. Low values mean a large IC50, high ones a small IC50. Compound `C[C@@H]1NC(=O)[C@H](CCCNC(=N)N)NC(=O)[C@H](CC(=O)O)NC(=O)[C@H](CCCNC(=N)N)NC(=O)[C@H](CCCNC(=N)N)NC(=O)[C@@H](N)CSSC[C@@H](C(=O)O)NC(=O)[C@H](CCCNC(=N)N)NC(=O)[C@H](CCC(N)=O)NC(=O)[C@H](CCCNC(=N)N)NC(=O)[C@H](Cc2ccc(O)cc2)NC(=O)[C@H](Cc2c[nH]cn2)NC(=O)[C@H](CCCNC(=N)N)NC1=O` [DeC-1.2, CRRDRARHYRQRC] (HELM PEPTIDE1{C.R.R.D.R.A.R.H.Y.R.Q.R.C}$PEPTIDE1,PEPTIDE1,1:R3-13:R3$$$V2.0; N-terminus and C-terminus assumed) had a pIC50 at TRPM2 of less than 4.00. In addition, the “block of ligand activation of TRPM2” value on TRPM2 (DeC-1.2 up to 100 μM) is “not blocked”. Moreover, on TRPM8, the “amplitude of calcium influx induced by menthol” value is “significantly inhibit” and the “percentage of positive reaction cells in response to menthol” value is “significantly inhibit”.
